Literature values, collected in article PMC7482441 (Pharmacological Research, 2020).

How the values were obtained:
mdx mice = conditions: cited from earlier work
BIO 14.6 hamster = conditions: cited from earlier work

CC(C)c1ccc(C(=O)NC(=N)N)cc1S(C)(=O)=O [Cariporide]
creatine kinase (CK) levels, inflammation, fibrosis and histological skeletal muscle damage (mdx mice): markedly reduced | intracellular Ca2+ levels and Na+ influx (BIO 14.6 hamster): normalised
